Experiment [1] relates to histamine-induced itching. Description: Histamine-induced itching animal behavioral test, preparation for transdermal administration. Type of experiment: in vivo, male C57BL/6 mice. As for the experimental part:
An effect of inhibiting or alleviating itching was tested using the preparation for transdermal administration prepared according to Preparation Example 2. For the test, an animal behavioral experiment was carried out in the same manner as in Experimental Example 1.
In particular, 30 minutes before 100 μg/50 μl of histamine was injected, the preparation for transdermal administration was applied on the skin, and then the preparation was removed 5 minutes before histamine was injected.

Experiment [2] concerns spinal cord dorsal root ganglion cells. Description: Histamine-induced current, membrane voltage clamp method. To be noted: primary cultured mouse dorsal root ganglion cells, FIG. 4. Type of experiment: cell-based. Here is the method:
In addition, to confirm an effect of riboflavin on blocking histamine-induced peripheral nerve activity, it was examined using a membrane voltage clamp method whether a histamine-induced current was inhibited by riboflavin.
To this end, spinal cord dorsal root ganglion cells of each mouse were isolated and primarily cultured, and then electrophysiological characteristics of the spinal cord dorsal root ganglion cells were recorded using the membrane voltage clamp method.

Experiment [3] concerns histamine-induced itching. Nature of the experiment: Histamine-induced itching animal behavioral test, local intradermal injection co-administered with histamine. The class given is in vivo, male C57BL/6 mice. The settings on record: 1 μM/50 μl intradermal, at the same time as histamine 100 μg/site; FIG. 2. As for the experimental part: An effect of inhibiting or alleviating itching was tested using the local intradermal injection prepared according to Preparation Example 1.
The test was carried out in the same manner as in Experimental Example 1, except for the following. For the itching-induced animal behavioral model test, 1 μM/50 μl of the local intradermal injection prepared according to Preparation Example 1 was injected intradermally into the back of the neck of each mouse. In addition, upon administration of the preparation, 50 μl (100 μg/site) of histamine was injected intradermally at the same time.

Experiment [4] deals with skin-afferent nerve tissue. Description: Histamine-induced peripheral nerve activity in preserved skin-afferent nerve tissue. To be noted: histamine administered to the sole of the foot; FIG. 3. As for the experimental part:
Histamine-induced itching is known to occur through peripheral nerve excitation. In the present experimental example, it was examined whether histamine-induced peripheral nerve activity was blocked by riboflavin.
After securing preserved skin-afferent nerve tissue, histamine was administered to the sole of the foot to confirm nerve activity, and such histamine-induced nerve activity was blocked by riboflavin (see FIG. 3).

The test system of experiment [5] is histamine-induced itching. Nature of the experiment: Histamine-induced itching animal behavioral test, preparations for oral administration. Type of experiment: in vivo, male C57BL/6 mice. The settings on record: FIG. 1. Here is the method: An effect of inhibiting or alleviating itching was tested using the preparations for oral administration prepared according to Preparation Example 1. For the test, an animal behavioral test was performed using the mouse model disclosed in Non-Patent Document 6.
Groups each including 10 male C57BL/6 mice weighing 20 g to 23 g were used in the test. These groups were accommodated under control of a temperature of 23° C. to 25° C. The mice were freely fed food and water. For the itching-induced animal behavioral model test, the mice were orally administered the preparations for oral administration having different concentrations of riboflavin, which were prepared according to Preparation Example 1 (100 mg/kg, 300 mg/kg, or 600 mg/kg). In addition, the mice were treated with the control prepared according to Preparation Example 1.
To induce scratching, histamine, which is known to cause an itching sensation in humans, was used. At this time, histamine was dissolved in sterile physiological saline. 30 minutes after administration of the preparations for oral administration, 50 μl (500 μg/site) of histamine was injected intradermally into the back of the neck of each mouse.
The results were analyzed by calculating the mean and standard deviation, and a statistical difference of mean values was determined using a Student's t-test.

In the next experiment the target is T1, TRPV1 (Homo sapiens, UniProt Q8NER1).
T1 construct: expressed in transfected cells; host or cells: HEK 293 cells
Nature of the experiment: Capsaicin current blocking in TRPV1-expressing HEK293 cells. The settings on record: TRPV1-expressing HEK 293 cells. Type of experiment: cell-based. From the text: TRPV1 was expressed in HEK 293 cells to carry out a capsaicin current blocking experiment. Under these conditions, riboflavin excluded other channels and a direct effect of riboflavin was examined. The results are illustrated in FIG. 5. FIG. 5 illustrates results of confirming that a capsaicin-induced current was inhibited by riboflavin.

Results on 2 molecules are retold here after patent US20190175601A1, “COMPOSITION FOR INHIBITING OR ALLEVIATING ITCHING INCLUDING RIBOFLAVIN” (INDUSTRY-UNIVERSITY COOPERATION FOUNDATION HANYANG …, priority 2016, published 2019).

The structures appear in SMILES notation.

T1 sequence (Q8NER1 whole entry, species assumed): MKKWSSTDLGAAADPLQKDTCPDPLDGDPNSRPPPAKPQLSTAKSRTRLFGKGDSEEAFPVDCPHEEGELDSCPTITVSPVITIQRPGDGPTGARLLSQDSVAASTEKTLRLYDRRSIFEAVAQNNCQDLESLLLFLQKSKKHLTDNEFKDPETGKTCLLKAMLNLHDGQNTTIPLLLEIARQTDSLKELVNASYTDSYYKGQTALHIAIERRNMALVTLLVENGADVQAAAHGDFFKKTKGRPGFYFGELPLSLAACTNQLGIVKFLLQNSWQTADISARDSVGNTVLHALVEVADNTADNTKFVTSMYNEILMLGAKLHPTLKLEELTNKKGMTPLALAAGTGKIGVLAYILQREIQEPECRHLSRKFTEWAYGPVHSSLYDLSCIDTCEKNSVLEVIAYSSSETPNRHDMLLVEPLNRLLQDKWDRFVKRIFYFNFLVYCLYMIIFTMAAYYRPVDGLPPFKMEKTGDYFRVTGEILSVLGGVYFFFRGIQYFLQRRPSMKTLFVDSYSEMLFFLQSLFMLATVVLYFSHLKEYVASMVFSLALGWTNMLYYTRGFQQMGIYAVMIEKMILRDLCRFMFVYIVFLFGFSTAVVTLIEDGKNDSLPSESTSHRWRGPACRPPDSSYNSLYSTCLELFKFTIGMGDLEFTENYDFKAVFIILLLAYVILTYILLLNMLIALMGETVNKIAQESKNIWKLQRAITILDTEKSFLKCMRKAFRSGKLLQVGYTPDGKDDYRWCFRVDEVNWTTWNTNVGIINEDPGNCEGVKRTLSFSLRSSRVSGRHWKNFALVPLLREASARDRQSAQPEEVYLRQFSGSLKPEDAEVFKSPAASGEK

As for `Cc1cc2nc3c(=O)[nH]c(=O)nc-3n(C[C@H](O)[C@H](O)[C@H](O)CO)c2cc1N(C)C` [roseoflavin, 8-demethyl-8-(dimethylamino)-riboflavin], in experiment [1] (1 mM in Vaseline cream on skin 30 minutes before histamine 100 μg/50 μl, removed 5 minutes before, observed 30 minutes, FIG. 8), the histamine-induced itching responses entry is “itching responses were reduced”. Also, the “itching behavioral responses (number of times)” value in experiment [1] (1 mM transdermal preparation, control 142 times, 30 minutes) came to 60 times.
With `Cc1cc2nc3c(=O)[nH]c(=O)nc-3n(C[C@H](O)[C@H](O)[C@H](O)CO)c2cc1C` [riboflavin], the histamine-induced inward current entry in experiment [2] is recorded as “the current is blocked”. In addition, the “histamine-induced itching responses (number of scratches)” value is listed as “itching responses were reduced” in experiment [3] and “itching responses were reduced” in experiment [5] (oral 100, 300 or 600 mg/kg, 30 minutes before histamine 500 μg/site intradermal, observed 30 minutes). Also, the histamine-induced nerve activity entry in experiment [4] is listed as “blocked”. Besides, the “dose dependence of effect on inhibiting histamine-induced itching” value in experiment [5] (oral 100, 300, 600 mg/kg) is “dose-dependent pattern”. Further, the “capsaicin-induced current blocking effect at 100 nM” value at TRPV1 (100 nM) is “did not effectively block TRPV1”. Moreover, the “capsaicin-induced current blocking effect” value on TRPV1 (several concentrations, FIG. 5) is “statistically significant effect of blocking channels in a concentration-dependent manner”.
